{"source": "patent US7622582B2", "about": "“Derivatives of 1-phenyl-benzofuro[3,2]pyridin-2(1H)-one” (Tibotec BVBA, priority 2004, dated 2009)", "test_system": "HIV", "experiment": "Cellular assay: anti-viral activity in HIV-infected MT4 cells (MTT cell viability)", "format": "cell-based", "details": "Human immunodeficiency virus 1, 120 h, five days incubation, MTT readout, negative logarithm of EC50 (protection of 50% of cells from cytopathogenic effect)", "description": "The compounds of the present invention were examined for anti-viral activity in a cellular assay, which was performed according to the following procedure.\nHIV- or mock-infected MT4 cells were incubated for five days in the presence of various concentrations of the inhibitor. At the end of the incubation period, the replicating virus in the control cultures has killed all HIV-infected cells in the absence of any inhibitor. Cell viability was determined by measuring the concentration of MTT, a yellow, water soluble tetrazolium dye that is converted to a purple, water insoluble formazan in the mitochondria of living cells only. Upon solubilization of the resulting formazan crystals with isopropanol, the absorbance of the solution was monitored at 540 nm. The values correlate directly to the number of living cells remaining in the culture at the completion of the five day incubation. The inhibitory activity of the compound was monitored on the virus-infected cells and was expressed as EC50 and EC90. These values represent the amount of the compound required to protect 50% and 90%, respectively, of the cells from the cytopathogenic effect of the virus. The toxicity of the compound was measured on the mock-infected cells and was expressed as CC50, which represents the concentration of compound required to inhibit the growth of the cells by 50%. The selectivity index (SI) (ratio CC50/EC50) is an indication of the selectivity of the anti-HIV activity of the inhibitor. Wherever results are reported as e.g. pEC50 or pCC50 values, the result is expressed as the negative logarithm of the result expressed as EC50 or CC50 respectively.\nTable 2 lists the pEC50 values obtained in this test for a number of compounds of the invention."}
{"smiles": "Cc1c(C#N)c(=O)n(-c2ccc([N+](=O)[O-])cc2)c2c1oc1cc(O)ccc12", "note": "[Compound 6, 7-Hydroxy-4-methyl-1-(4-nitrophenyl)-2-oxo-1,2-dihydro-benzo[4,5]furo[3,2-b]-pyridine-3-carbonitrile]", "values": [{"measurement": "EC50", "result": 3.16, "unit": "µM"}]}
{"smiles": "Cc1c(C#N)c(=O)n(-c2ccc([N+](=O)[O-])cc2)c2c1oc1cccnc12", "note": "[Compound 3, 4-Methyl-1-(4-nitrophenyl)-2-oxo-1,2-dihydro-furo[3,2-b;4,5-b′]dipyridine-3-carbonitrile]", "values": [{"measurement": "EC50", "result": 1.58, "unit": "µM"}]}
{"smiles": "CC(=O)c1ccc(-n2c(=O)c(C)c(C#N)c3oc4ccccc4c32)cc1", "note": "[Compound 1, 1-(4-Acetyl-phenyl)-3-methyl-2-oxo-1,2-dihydro-benzo[4,5]furo[3,2-b]pyridine-4-carbonitrile]", "values": [{"measurement": "EC50", "result": 2.51, "unit": "µM"}]}
{"smiles": "COc1ccc2c(c1)oc1c(C)c(C#N)c(=O)n(-c3ccc([N+](=O)[O-])cc3)c12", "note": "[Compound 5, 7-Methoxy-4-methyl-1-(4-nitrophenyl)-2-oxo-1,2-dihydro-benzo[4,5]furo[3,2-b]-pyridine-3-carbonitrile]", "values": [{"measurement": "EC50", "result": 0.398, "unit": "µM"}]}
